Where a name gives a salt, the structure may show the parent alone.
What was measured:
[1] = system: human 5-HT1B; set-up: method as in doi:10.1186/1129-2377-14-S1-P75; details: cited from earlier work
[2] = target: T1, human 5-HT4E receptor (Homo sapiens, UniProt Q13639); experiment: Radioligand competition binding, [3H]GR 113808, CHO cell membranes
T1 construct: host or cells: CHO
Protocol: Nonspecific binding was determined in the presence of 100 μM serotonin. Following incubation, the same protocol as described above for 5-HT3 binding was employed. The standard reference compound for 5-HT4E binding is serotonin.

[3] = system: α-adrenergic2C; details: IV DHE (53 ng/mL); cited from earlier work
[4] = system: α-adrenergic2A; details: IV DHE (53 ng/mL); cited from earlier work
[5] = system: 5-HT6; details: IV DHE (53 ng/mL); cited from earlier work
[6] = target: T2, α-adrenergic1B (Homo sapiens, UniProt P35368); experiment: gpcrMAX PathHunter β-arrestin recruitment, antagonist mode; assay type: cell-based
T2 construct: ProLink enzyme-donor fragment of β-galactosidase (own knowledge of the PathHunter design)
T2 sequence (P35368 whole entry, the tested form may be a part): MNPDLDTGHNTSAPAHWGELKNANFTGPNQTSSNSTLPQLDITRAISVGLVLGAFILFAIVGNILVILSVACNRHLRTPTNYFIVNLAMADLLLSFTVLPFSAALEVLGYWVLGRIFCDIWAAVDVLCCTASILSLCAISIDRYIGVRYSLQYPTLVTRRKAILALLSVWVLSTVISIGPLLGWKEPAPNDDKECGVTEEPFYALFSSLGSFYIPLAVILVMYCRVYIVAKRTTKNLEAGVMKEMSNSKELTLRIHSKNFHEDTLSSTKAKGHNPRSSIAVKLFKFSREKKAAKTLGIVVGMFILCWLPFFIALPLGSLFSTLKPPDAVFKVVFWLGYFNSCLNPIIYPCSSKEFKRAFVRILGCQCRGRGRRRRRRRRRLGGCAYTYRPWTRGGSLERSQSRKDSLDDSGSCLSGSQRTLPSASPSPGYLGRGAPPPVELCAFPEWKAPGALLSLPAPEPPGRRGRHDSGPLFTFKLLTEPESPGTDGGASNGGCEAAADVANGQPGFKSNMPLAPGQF
Protocol: (§1) PathHunter cell lines were expanded from freezer stocks according to standard procedures and cells were seeded in a total volume of 20 μL into white-walled, 384-well microplates in duplicate and incubated at 37°C prior to testing. […] Intermediate dilution (1% vehicle concentration) of sample stocks was performed to generate a 5× sample in assay buffer, of which 5 μL was added to the cells and incubated for 90 or 180 min at 37°C or room temperature, depending on the specific receptor, as established by manufacturer optimization protocols (see Supplementary Table 1). For antagonist activity, cells were preincubated with an antagonist for 30 min, followed by an agonist challenge at 80% of the maximal effective concentration (EC80). Intermediate dilution of sample stocks was performed to generate 5× sample in assay buffer, of which 5 μL was added to cells and incubated at 37°C or room temperature for 30 min. This was followed by an addition of 5 μL of 6× EC80 agonist in assay buffer to the cells, which were incubated at 37°C or room temperature for 90 or 180 min. Assay signal for agonist and antagonist modes was generated through a single addition of 12.5 or 15 μL (50% v/v) of PathHunter Detection reagent cocktail, followed by a 1-h incubation at room temperature. Further experimental details can be found in the Supplementary File. Microplates were read with a PerkinElmer EnVision (Shelton, CT) instrument for chemiluminescent signal detection.
(§2) Measurement of agonist and antagonist activity in the assay was calculated as percent activity of relative luminescence units (from positive control). Significance of agonist/antagonist activity was determined based upon prespecified criteria provided by Eurofins DiscoverX. In brief, receptor activity >30% was considered a significant agonist effect. Receptor inhibition >50% was considered a significant inhibitory effect. Please refer to the Supplementary File for more detail.
(§3) Samples were added to cells and incubated for 90 or 180 minutes at 37 °C or room temperature, depending on the specific receptor, as noted, with specific incubation protocols outlined in Supplemental Table 1. For antagonist activity, preincubation temperatures were performed at the temperatures specified in Supplemental Table 1, per target. Incubation with 6× EC80 agonist was determined by the assay manufacturer and selected in order to provide a challenge that was low enough to be below the saturation point, so as to not bias the results, while still at a high enough challenge concentration to yield a robust signal-to-noise ratio. Further information is available from Eurofins Discovery Services upon request.

[7] = target: T3, 5-HT1F (Homo sapiens, UniProt P30939); experiment: as above; assay type: cell-based
T3 construct: ProLink enzyme-donor fragment of β-galactosidase (own knowledge of the PathHunter design)
T3 sequence (P30939 1-366): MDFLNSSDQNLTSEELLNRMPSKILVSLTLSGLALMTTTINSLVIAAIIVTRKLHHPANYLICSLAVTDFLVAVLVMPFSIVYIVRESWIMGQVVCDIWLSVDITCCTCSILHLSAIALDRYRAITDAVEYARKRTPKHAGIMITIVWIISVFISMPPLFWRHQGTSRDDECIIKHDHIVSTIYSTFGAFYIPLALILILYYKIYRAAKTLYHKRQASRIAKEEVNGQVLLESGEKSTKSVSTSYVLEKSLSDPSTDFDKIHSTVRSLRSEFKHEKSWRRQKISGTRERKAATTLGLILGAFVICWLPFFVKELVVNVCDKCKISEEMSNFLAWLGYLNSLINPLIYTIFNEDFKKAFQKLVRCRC
Protocol: as §1, §2, §3

[8] = target: T4, D4 (Homo sapiens, UniProt P21917); experiment: as above; assay type: cell-based
T4 construct: ProLink enzyme-donor fragment of β-galactosidase (own knowledge of the PathHunter design)
T4 sequence (P21917 whole entry, the tested form may be a part): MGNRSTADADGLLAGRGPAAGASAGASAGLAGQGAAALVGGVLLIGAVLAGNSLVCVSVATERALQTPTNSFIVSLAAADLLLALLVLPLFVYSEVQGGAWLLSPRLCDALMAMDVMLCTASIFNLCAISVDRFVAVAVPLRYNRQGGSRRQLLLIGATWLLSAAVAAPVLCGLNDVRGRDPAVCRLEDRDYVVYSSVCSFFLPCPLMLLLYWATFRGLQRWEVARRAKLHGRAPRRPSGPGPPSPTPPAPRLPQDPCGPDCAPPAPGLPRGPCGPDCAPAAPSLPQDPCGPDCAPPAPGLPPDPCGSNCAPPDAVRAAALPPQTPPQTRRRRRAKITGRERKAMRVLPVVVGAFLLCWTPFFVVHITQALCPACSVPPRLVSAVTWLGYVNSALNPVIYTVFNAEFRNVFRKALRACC
Protocol: as §1, §2, §3

[9] = target: T5, D3 (Homo sapiens, UniProt P35462); experiment: as above; assay type: cell-based
T5 construct: ProLink enzyme-donor fragment of β-galactosidase (own knowledge of the PathHunter design)
T5 sequence (P35462 whole entry, the tested form may be a part): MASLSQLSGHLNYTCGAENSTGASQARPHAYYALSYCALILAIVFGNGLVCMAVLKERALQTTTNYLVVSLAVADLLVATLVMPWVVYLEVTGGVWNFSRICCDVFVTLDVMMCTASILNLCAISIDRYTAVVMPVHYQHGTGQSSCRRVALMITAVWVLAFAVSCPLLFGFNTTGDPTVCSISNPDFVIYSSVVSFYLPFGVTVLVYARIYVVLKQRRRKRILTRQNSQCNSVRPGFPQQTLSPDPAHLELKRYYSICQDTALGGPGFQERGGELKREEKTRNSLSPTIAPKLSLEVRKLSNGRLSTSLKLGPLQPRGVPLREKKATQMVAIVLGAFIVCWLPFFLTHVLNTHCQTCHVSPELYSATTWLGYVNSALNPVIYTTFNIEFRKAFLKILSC
Protocol: as §1, §2, §3

[10] = target: T6, α-adrenergic2A (Homo sapiens, UniProt P08913); experiment: as above; assay type: cell-based
T6 construct: ProLink enzyme-donor fragment of β-galactosidase (own knowledge of the PathHunter design)
T6 sequence (P08913 whole entry, the tested form may be a part): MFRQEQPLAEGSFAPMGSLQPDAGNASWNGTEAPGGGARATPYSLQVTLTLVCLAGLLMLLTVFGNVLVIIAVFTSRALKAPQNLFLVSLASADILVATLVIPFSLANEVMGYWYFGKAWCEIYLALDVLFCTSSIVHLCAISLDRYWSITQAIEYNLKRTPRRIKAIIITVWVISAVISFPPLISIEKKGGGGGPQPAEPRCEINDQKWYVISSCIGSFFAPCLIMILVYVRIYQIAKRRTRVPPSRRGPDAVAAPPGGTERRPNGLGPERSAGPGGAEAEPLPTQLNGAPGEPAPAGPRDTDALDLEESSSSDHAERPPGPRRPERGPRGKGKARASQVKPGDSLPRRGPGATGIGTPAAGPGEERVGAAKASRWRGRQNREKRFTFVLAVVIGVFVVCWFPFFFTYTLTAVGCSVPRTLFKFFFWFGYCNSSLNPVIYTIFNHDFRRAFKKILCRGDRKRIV
Protocol: as §1, §2, §3

[11] = target: T7, α-adrenergic2C (Homo sapiens, UniProt P18825); experiment: as above; assay type: cell-based
T7 construct: ProLink enzyme-donor fragment of β-galactosidase (own knowledge of the PathHunter design)
T7 sequence (P18825 whole entry, the tested form may be a part): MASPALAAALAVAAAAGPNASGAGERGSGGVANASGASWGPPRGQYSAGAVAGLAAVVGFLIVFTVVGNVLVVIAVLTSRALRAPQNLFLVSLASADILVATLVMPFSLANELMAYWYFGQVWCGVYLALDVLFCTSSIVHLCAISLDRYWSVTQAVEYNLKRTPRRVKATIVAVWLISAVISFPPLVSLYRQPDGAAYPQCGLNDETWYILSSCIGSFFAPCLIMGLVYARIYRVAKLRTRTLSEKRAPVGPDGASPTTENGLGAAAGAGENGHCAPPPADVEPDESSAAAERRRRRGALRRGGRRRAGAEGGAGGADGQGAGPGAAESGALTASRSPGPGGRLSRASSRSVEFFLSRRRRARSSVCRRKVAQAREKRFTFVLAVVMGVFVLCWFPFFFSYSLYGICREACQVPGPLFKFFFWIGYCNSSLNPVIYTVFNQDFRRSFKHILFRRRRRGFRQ
Protocol: as §1, §2, §3

[12] = target: T8, AMY2 (CTR-RAMP2) (Homo sapiens, UniProt O60895+P30988); experiment: as above; assay type: cell-based
T8 construct: ProLink enzyme-donor fragment of β-galactosidase (own knowledge of the PathHunter design)
T8 sequence (P30988 25-474): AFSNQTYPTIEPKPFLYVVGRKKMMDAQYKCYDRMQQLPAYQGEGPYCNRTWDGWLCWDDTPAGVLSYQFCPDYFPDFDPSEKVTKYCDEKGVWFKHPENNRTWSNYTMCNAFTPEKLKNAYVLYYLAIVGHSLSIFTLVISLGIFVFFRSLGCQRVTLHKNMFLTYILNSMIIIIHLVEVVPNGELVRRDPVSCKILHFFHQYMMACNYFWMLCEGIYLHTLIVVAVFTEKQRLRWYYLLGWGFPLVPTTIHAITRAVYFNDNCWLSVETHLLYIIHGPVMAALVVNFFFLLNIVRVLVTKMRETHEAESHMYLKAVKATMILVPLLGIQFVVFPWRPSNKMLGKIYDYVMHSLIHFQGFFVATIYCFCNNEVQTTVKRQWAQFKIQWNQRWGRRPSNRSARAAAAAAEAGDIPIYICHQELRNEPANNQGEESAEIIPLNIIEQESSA
T8 sequence (O60895 43-175 partner): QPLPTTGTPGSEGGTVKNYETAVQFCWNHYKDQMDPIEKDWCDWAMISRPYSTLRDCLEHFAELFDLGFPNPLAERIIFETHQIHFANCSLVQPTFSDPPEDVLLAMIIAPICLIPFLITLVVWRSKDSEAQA
Protocol: as §1, §2, §3

[13] = target: T9, D1 (Homo sapiens, UniProt P21728); experiment: as above; assay type: cell-based
T9 construct: ProLink enzyme-donor fragment of β-galactosidase (own knowledge of the PathHunter design)
T9 sequence (P21728 whole entry, the tested form may be a part): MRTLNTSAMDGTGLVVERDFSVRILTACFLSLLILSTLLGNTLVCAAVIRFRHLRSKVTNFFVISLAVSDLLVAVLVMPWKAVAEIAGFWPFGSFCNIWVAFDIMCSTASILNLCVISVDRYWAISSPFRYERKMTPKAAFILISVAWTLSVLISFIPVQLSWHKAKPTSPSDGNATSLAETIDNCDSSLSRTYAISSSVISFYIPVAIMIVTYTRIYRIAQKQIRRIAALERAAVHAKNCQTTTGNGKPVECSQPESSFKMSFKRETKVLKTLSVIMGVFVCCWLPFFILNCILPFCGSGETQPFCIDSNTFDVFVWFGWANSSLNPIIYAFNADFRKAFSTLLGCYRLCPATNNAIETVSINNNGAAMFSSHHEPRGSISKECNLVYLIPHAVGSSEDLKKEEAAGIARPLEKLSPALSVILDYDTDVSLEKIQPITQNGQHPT
Protocol: as §1, §2, §3

[14] = target: T10, D5 (Homo sapiens, UniProt P21918); experiment: as above; assay type: cell-based
T10 construct: ProLink enzyme-donor fragment of β-galactosidase (own knowledge of the PathHunter design)
T10 sequence (P21918 whole entry, the tested form may be a part): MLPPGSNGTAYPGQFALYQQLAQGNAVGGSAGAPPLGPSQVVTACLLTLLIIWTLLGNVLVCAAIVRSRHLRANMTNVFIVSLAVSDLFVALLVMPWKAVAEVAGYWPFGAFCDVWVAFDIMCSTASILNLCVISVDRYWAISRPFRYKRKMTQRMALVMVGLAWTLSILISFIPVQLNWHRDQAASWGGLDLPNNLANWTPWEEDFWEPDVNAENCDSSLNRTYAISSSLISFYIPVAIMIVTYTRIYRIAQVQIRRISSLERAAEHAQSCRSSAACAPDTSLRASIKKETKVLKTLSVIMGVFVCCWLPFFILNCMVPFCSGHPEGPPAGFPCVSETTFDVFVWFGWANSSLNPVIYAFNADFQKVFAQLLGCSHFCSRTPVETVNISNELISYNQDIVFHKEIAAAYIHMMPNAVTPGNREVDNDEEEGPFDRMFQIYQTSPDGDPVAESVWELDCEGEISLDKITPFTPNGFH
Protocol: as §1, §2, §3

[15] = system: 5-HT1B; details: IV DHE (53 ng/mL); cited from earlier work
[16] = target: CXCR7 (Homo sapiens, UniProt P25106); experiment: gpcrMAX PathHunter β-arrestin recruitment, agonist mode; assay type: cell-based; set-up: ProLink enzyme-donor fragment of β-galactosidase (own knowledge of the PathHunter design)
CXCR7, sequence (P25106 whole entry, the tested form may be a part): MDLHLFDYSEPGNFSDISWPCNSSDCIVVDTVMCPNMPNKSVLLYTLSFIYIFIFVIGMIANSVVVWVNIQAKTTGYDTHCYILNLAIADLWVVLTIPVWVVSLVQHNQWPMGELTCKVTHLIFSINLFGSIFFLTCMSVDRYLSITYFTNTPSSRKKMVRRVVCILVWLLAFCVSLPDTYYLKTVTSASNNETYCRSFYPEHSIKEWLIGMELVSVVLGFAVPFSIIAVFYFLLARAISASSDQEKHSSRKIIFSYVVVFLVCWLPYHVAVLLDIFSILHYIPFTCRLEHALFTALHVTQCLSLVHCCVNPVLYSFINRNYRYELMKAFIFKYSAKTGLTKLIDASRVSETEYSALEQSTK
Protocol: as §1, with “This was followed by an addition of 5 μL of 6× EC80 agonist in assay buffer to the cells, which were incubated at 37°C or room temperature for 90 or 180 min. Assay signal for agonist and antagonist modes was generated through a single addition of 12.5 or 15 μL (50% v/v) of PathHunter Detection reagent cocktail, followed by a 1-h incubation at room temperature. Further experimental details can be found in the Supplementary File.” left out
Measurement of agonist and antagonist activity in the assay was calculated as percent activity of relative luminescence units (from positive control). Significance of agonist/antagonist activity was determined based upon prespecified criteria provided by Eurofins DiscoverX. […]

[17] = system: 5-HT1D; details: IV DHE (53 ng/mL); cited from earlier work
[18] = 10 μM, >50% inhibition = antagonist
[19] = agonist control Dopamine at EC80
[20] = agonist control UK 14,304 at EC80

T1 sequence (Q13639 1-378 isoform Q13639-5): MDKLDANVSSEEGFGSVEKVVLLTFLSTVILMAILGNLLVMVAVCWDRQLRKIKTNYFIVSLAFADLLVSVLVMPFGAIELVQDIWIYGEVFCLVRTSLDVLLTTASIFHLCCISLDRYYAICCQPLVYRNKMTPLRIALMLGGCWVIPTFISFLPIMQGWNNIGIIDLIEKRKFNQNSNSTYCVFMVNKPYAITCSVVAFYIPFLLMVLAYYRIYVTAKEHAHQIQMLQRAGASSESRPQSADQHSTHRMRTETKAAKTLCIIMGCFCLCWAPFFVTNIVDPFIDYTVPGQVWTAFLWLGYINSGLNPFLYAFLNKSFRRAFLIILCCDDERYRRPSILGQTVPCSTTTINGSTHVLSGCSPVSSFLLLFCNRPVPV

## CN1C[C@H](C(=O)N[C@]2(C)O[C@@]3(O)[C@@H]4CCCN4C(=O)[C@H](Cc4ccccc4)N3C2=O)C[C@@H]2c3cccc4[nH]cc(c34)C[C@H]21 [DHE, Dihydroergotamine mesylate]
[1]
  dissociation half-life: 1.38 h
[2]
  IC50: 230 nM
[3]
  receptor radioligand binding (active binding): X (An X denotes active binding)
[4]
  receptor radioligand binding (active binding): X (An X denotes active binding)
[5]
  receptor radioligand binding (active binding): X (An X denotes active binding)
[6]; [18]
  DHE activity (screening): Antagonist
[6]; agonist control Phenylephrine at EC80
  inhibition at 10 µM: 95%
[7]
  IC50: 149 nM
[7]; [18]
  DHE activity (screening): Antagonist
[7]; 10 μM, agonist control Serotonin at EC80
  inhibition at 10 µM: 92%
[8]; [18]
  DHE activity (screening): Antagonist
[8]; [19]
  inhibition at 10 µM: 83%
[9]; [18]
  DHE activity (screening): Antagonist
[9]; [19]
  inhibition at 10 µM: 91%
[10]; [18]
  DHE activity (screening): Antagonist
[10]; [20]
  inhibition at 10 µM: 115%
[11]; [18]
  DHE activity (screening): Antagonist
[11]; [20]
  inhibition at 10 µM: 124%
[12]
  inhibition at 10 µM: 57%
[12]; [18]
  DHE activity (screening): Antagonist
[13]; [18]
  DHE activity (screening): Antagonist
[13]; [19]
  inhibition at 10 µM: 71%
[14]; [18]
  DHE activity (screening): Antagonist
[14]; [19]
  inhibition at 10 µM: 54%
[15]
  receptor radioligand binding (active binding): X (An X denotes active binding)
[16]
  EC50: 6000 nM
[16]; 10 μM, >30% activity = agonist
  DHE activity (screening): Agonist
[17]
  receptor radioligand binding (active binding): X (An X denotes active binding)

From article PMC10703426, “New characterization of dihydroergotamine receptor pharmacology in the context of migraine: utilization of a β-arrestin recruitment assay” (Frontiers in Neurology, 2023)
